Experiment [1] deals with ZR-75-1. The experiment is described as follows: Cell viability assay, adherent cell line, 5 day Alamar Blue (Example 8): ZR-75-1. Format: cell-based. Particulars: ZR-75-1, Breast Cancer Cell Viability. The method, then: (§1) Cell viability assays were performed on certain compounds of the disclosure, according to the following procedure.
(§2) Cell line specific media conditions used:
(§3) The procedure for adherent cell line compound screening was as follows:
(§4) • Cells were seeded in 96-well cell culture treated tissue culture plates: ZR-75-1, NIHOVCAR3, T47D, and LOVO cells 4000 cells/well; and HPAFII 3000 cell/well
(§5) Day 3: Compound Dilution and Dosing
(§6) • 5-fold serial dilution (8 point) of each compound in DMSO 0-25 mM in compound storage plates was prepared (stored at −80° C. if not to be used immediately). • Cells were rinsed with 1% FBS Media (appropriate to cell line as described above) and replaced with 87.5 μL media prior to dosing. HPAFII was screened in normal 10% FBS Media. • DMSO compound dilution series was diluted in 1% FBS media (appropriate to cell line as described above)—2 μL in 248 μL to give an 8× final concentration. • Cells were dosed 12.5 μL/well in triplicate to give final dose curved on cells 0-25 μM. • Media blank 100 μL/well×8 was set up. • All plates were incubated at 37° C.
(§7) Day 8: 5 Day Viability Assay
(§8) • Alamar Blue viability reagent was added (10 μL per well) and incubated for 3 hours at 37° C. prior to fluorescence detection (Ex560 nm/Em590 nm) on a Varioskan Lux multimode plate reader.
(§9) Results from cell viability assays are summarized in Table 23, wherein A represents IC50≤1 μM; B represents 1 μM<IC50≤8 μM; and C represents IC50>8 μM. Blank cells indicate that the compound was not tested in a particular assay.
For orientation: The colour change of resazurin is a common sign of viable cells or microbes.

In experiment [2] the test system is ZR-75-1. The experiment in a line: ZR-75-1 compound screening cell viability, Alamar Blue (Example 6). It counts as cell-based. Particulars: ZR-75-1 cells, Media 1% FBS, read-out: ZR-75-1 Cell Viability, 4 Days: IC50.
The next experiment deals with NCIH510A. The experiment is described as follows: Cell viability assay, suspension cell line, 5 day Alamar Blue (Example 8): NCIH510A. It counts as cell-based. Particulars: Homo sapiens, NCI-H510A, 120 h, Small Cell Lung Cancer Cell Line. The method, then:
as §1, §2
(§10) The procedure for suspension cell line compound screening was as follows:
(§11) Day 1: Cell Seeding and Compound Dosing
as §6, with “• Cells were seeded 2×10^5 in 96-well cell culture treated tissue culture plates: 87.5 μL/well; MM.1 S, MM,1R, NCIH510A. • 5-fold” for “• 5-fold”, “to dosing. • DMSO” for “to dosing. HPAFII was screened in normal 10% FBS Media. • DMSO”
(§12) Day 6: 5 Day Viability Assay
as §8, §9

The test system of a further experiment is NIHOVCAR3. The experiment is described as follows: Cell viability assay, adherent cell line, 5 day Alamar Blue (Example 8): NIHOVCAR3. Particulars: Homo sapiens, OVCAR-3, 120 h, OVCAR3, Ovarian Cancer Cell. It counts as cell-based. Here is the method: as §1, §2, §3, §4, §5, §6, §7, §8, §9
The next experiment relates to LoVo. The experiment in a line: Cell viability assay, adherent cell line, 5 day Alamar Blue (Example 8): LoVo. Format: cell-based. Conditions: Homo sapiens, 120 h, Colorectal Cancer Cell Viability. Here is the method:
as §1, §2, §3, §4, §5, §6, §7, §8, §9

A further experiment relates to MM.1R. The experiment is described as follows: Cell viability assay, suspension cell line, 5 day Alamar Blue (Example 8): MM.1R. Conditions: 120 h, Multiple Myeloma (Steroid Resistant) Cancer Cell. Format: cell-based. The method, then:
as §1, §2, §10, §11
as §6, with “• Cells were seeded 2×10^5 in 96-well cell culture treated tissue culture plates: 87.5 μL/well; MM.1 S, MM,1R, NCIH510A. • 5-fold” for “• 5-fold”, “to dosing. • DMSO” for “to dosing. HPAFII was screened in normal 10% FBS Media. • DMSO”
as §12, §8, §9

For another experiment, the system named is T47D. The experiment is described as follows: Cell viability assay, adherent cell line, 5 day Alamar Blue (Example 8): T47D. It counts as cell-based. Conditions: Homo sapiens, 120 h, Breast Cancer Cell Viability. Here is the method: as §1, §2, §3, §4, §5, §6, §7, §8, §9
Another experiment has as its system HPAFII. The experiment in a line: Cell viability assay, adherent cell line, 5 day Alamar Blue (Example 8): HPAFII. It counts as cell-based. Particulars: Homo sapiens, HPAF-II, 120 h, Pancreatic Cancer Cell. The method, then: as §1, §2, §3, §4, §5, §6, §7, §8, §9
The subject of a further experiment is MM.1S. The experiment in a line: Cell viability assay, suspension cell line, 5 day Alamar Blue (Example 8): MM.1S. Conditions: Homo sapiens, MM1.S, 120 h, Multiple Myeloma (Steroid Sensitive) Cancer Cell. It counts as cell-based. Here is the method:
as §1, §2, §10, §11
as §6, with “• Cells were seeded 2×10^5 in 96-well cell culture treated tissue culture plates: 87.5 μL/well; MM.1 S, MM,1R, NCIH510A. • 5-fold” for “• 5-fold”, “to dosing. • DMSO” for “to dosing. HPAFII was screened in normal 10% FBS Media. • DMSO”
as §12, §8, §9

A further experiment has as its target T1, Human eIF4E (aa 28-217) (Homo sapiens, UniProt P06730).
T1 construct: Human eIF4E (aa 28-217) with a C-terminal His-tag; made in house
The experiment is described as follows: 4G-eIF4E protein-based assay (TR-FRET, biotin labeled 4G2 peptide). Format: binding. Here is the method: Human eIF4E ([…]) with a C-terminal His-tag was expressed in E. coli in inclusion bodies. The protein was solubilized with 8 M urea and purified under denaturing conditions using nickel-charged HisTrap HP columns (GE Healthcare). The purified protein was then refolded by diluting in 20 mM Hepes pH 7.0, 0.5 M NaCl, 1 mM DTT, […], 0.5 M arginine plus 6 M urea, and then dialyzing overnight into the same buffer without the urea. The protein was further dialyzed into 20 mM Hepes, pH 6.5, 50 mM NaCl, 1 mM EDTA, 1 mM DTT, and concentrated using Hitrap SP sepharose FF columns (GE Healthcare). The concentrated protein was dialyzed into 20 mM Hepes, pH 7.0, 0.5M NaCl, 5 mM DTT and […], and stored at -80° C. until use. Test compounds (3.43 mM stock in DMSO) were diluted 2-fold in series in DMSO (10 concentration points). Compound solutions (1.2 μL/well) were added into black 384-well polypropylene microplates (Matrix, Thermal Scientific). […] The samples were incubated at room temperature (20-23° C.) for 4 hours. Biotin labeled 4G2 peptide ([…])-NH2, 1.75 μM stock in DMSO) was diluted to 0.13 μM in Assay Buffer (without DTT) and 5 μL/well was added. The samples were incubated at room temperature for 20 min. Five microliters per well of 15 nM Eu-streptavidin (Eu-SA, Perkin Elmer) and 96 nM Allophycocyanin (APC)-anti His antibody (Columbia Biosciences) in Assay Buffer (without DTT) were then added and the samples were incubated at room temperature for 20 min. Assay signals were monitored by reading excitation at 340 nm and emission fluorescence at 615 nm and 665 nm on an Envision reader (Perkin Elmer). Normalized TR-FRET (time-resolved fluorescence resonance energy transfer) assay signal (Rn) was calculated by the formula: […] C=(Ac-Ba)/(Dc-Bd) • Where Ac is the fluorescence intensity of 1.5 nM Eu-SA in the assay buffer at 665 nm. IC50 values were calculated using xLFit program (IDBS).
On the technique in general: In TR-FRET formats the signal depends on donor and acceptor labels being close together.

T1 sequence (P06730 28-217): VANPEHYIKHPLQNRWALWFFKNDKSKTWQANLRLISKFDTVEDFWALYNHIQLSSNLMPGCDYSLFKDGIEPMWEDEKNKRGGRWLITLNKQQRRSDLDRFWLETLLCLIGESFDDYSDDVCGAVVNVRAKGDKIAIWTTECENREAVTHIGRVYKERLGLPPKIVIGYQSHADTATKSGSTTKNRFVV

In general, IC50 refers to the point on the concentration scale where inhibition reaches its midpoint. Regarding “2-((4-(cyclopent-1-en-1-yl)-5-isobutylthiazol-2-yl)amino)-5-(thiophen-2-yl)nicotinic acid [Compound I-7]”, the IC50 with ZR-75-1 [1] is > 8 µM; in the experiment with ZR-75-1 [2], < 1 µM.
On to `CC(C)Cc1sc(Nc2ncc(-c3cccs3)cc2C(=O)O)nc1C1=CCC(F)(F)CC1` [Compound I-4], for which the IC50 is ≤ 1 µM in the experiment on NCIH510A; ≤ 1 µM with ZR-75-1 [1] (Homo sapiens, 120 h); ≤ 1 µM with NIHOVCAR3; < 1 µM in the experiment with ZR-75-1 [2] (Homo sapiens, 96 h); ≤ 1 µM in the experiment with LoVo; 1 to 8 µM in the experiment with MM.1R. Moreover, the 50% inhibitory concentration (IC50) in the experiment with T47D was ≤ 1 µM; in the experiment on HPAFII it was ≤ 1 µM; with MM.1S, ≤ 1 µM; against Human eIF4E (aa 28-217), 0.5 to 1 µM.
Regarding `COC(=O)c1cc(-c2cccs2)cnc1Nc1nc(C2=CCC(F)(F)CC2)c(CC(C)C)s1` [Compound I-5, methyl 2-((4-(4,4-difluorocyclohex-1-en-1-yl)-5-isobutylthiazol-2-yl)amino)-5-(thiophen-2-yl)nicotinate], the IC50 in the experiment on ZR-75-1 [1] (Homo sapiens, 120 h) was > 8 µM; in the experiment with ZR-75-1 [2] (Homo sapiens, 96 h) it was > 8 µM.
In the case of `CC(C)Cc1sc(Nc2ncc(-c3cccs3)cc2C(=O)O)nc1C1CCCC1` [Compound I-6, 2-((4-cyclopentyl-5-isobutylthiazol-2-yl)amino)-5-(thiophen-2-yl)nicotinic acid], the IC50 with ZR-75-1 [1] (Homo sapiens, 120 h) was ≤ 1 µM; in the experiment with ZR-75-1 [2] (Homo sapiens, 96 h), < 1 µM.
On the same counts, the results for `CC(C)c1sc(Nc2ncc(-c3cccs3)cc2C(=O)O)nc1C1=CCCC1` [Compound I-9] are ≤ 1 µM and < 1 µM.
With `CC(C)Cc1sc(Nc2ncc(-c3cccs3)cc2C(=O)O)nc1C1CC1` [Compound I-10], the IC50 in the experiment on ZR-75-1 [1] (Homo sapiens, 120 h) was 1 to 8 µM; in the experiment on ZR-75-1 [2] (Homo sapiens, 96 h) it was 1 to 8 µM.
In the case of `O=C(O)c1cc(-c2cccs2)cnc1Nc1nc(C(F)(F)F)cs1` [Compound I-12], the IC50 in the experiment on ZR-75-1 [1] (Homo sapiens, 120 h) lay in the range of 1 to 8 µM; in the experiment on ZR-75-1 [2] (Homo sapiens, 96 h), 1 to 8 µM.
As to `C=C(C)c1nc(Nc2ncc(-c3cccs3)cc2C(=O)O)sc1CC(C)C` [Compound I-13], the IC50 in the experiment on NCIH510A lay in the range of 1 to 8 µM; in the experiment with ZR-75-1 [1] (Homo sapiens, 120 h), 1 to 8 µM; with NIHOVCAR3 it was 1 to 8 µM; in the experiment on ZR-75-1 [2] (Homo sapiens, 96 h), 1 to 8 µM; in the experiment with LoVo, 1 to 8 µM; with MM.1R, 1 to 8 µM. In addition, the IC50 lay within 1 to 8 µM with T47D, 1 to 8 µM in the experiment on HPAFII, 1 to 8 µM in the experiment on MM.1S and 0.5 to 1 µM at Human eIF4E (aa 28-217).
On to `Cc1nc(Nc2ncc(-c3cccs3)cc2C(=O)O)sc1C` [Compound I-14], for which the IC50 in the experiment with ZR-75-1 [1] (Homo sapiens, 120 h) is 1 to 8 µM; in the experiment on ZR-75-1 [2] (Homo sapiens, 96 h), 1 to 8 µM.
With `O=C(O)c1cc(-c2cccs2)cnc1Nc1nccs1` [Compound I-15], the half-inhibitory concentration (IC50) in the experiment with ZR-75-1 [1] (Homo sapiens, 120 h) is > 8 µM; with ZR-75-1 [2] (Homo sapiens, 96 h), > 8 µM.

Source of the values: patent publication US20240208961A1, “EIF4E INHIBITORS AND USES THEREOF” (PIC Therapeutics, Inc., priority 2022, published 2024).
